57 compounds from ChEMBL document CHEMBL1151820, “Antagonists of the P2X(7) receptor. From lead identification to drug development” (J Med Chem, 2009) can be followed below.

One experiment deals with T1, P2X purinoceptor 7 (Homo sapiens, UniProt Q99572).
T1 sequence (Q99572 whole entry): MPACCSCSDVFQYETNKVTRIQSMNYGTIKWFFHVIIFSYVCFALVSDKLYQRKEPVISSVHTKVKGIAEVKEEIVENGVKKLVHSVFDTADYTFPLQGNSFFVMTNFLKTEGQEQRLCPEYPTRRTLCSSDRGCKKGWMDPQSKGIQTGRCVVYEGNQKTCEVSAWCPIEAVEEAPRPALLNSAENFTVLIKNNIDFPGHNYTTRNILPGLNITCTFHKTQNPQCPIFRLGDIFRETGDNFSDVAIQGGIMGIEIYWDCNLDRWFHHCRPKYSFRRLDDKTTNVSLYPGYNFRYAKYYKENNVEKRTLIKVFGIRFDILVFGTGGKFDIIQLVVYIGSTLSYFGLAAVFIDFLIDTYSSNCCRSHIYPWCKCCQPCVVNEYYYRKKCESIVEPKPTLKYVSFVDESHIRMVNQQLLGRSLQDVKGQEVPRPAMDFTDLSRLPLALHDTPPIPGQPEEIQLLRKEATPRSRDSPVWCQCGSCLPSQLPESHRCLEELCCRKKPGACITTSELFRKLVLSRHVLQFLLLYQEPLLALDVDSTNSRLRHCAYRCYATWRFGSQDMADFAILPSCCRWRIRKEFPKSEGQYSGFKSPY
Kind of experiment: Antagonist activity at P2X7 receptor in human THP1 cells assessed as inhibition of BzATP-induced ethidium uptake. The conditions noted are these: for pIC50: thp-1; for Kb: read-out: pA2 (converted). The class given is functional, cell-based, THP-1.

Experiment [1] concerns the target T2, P2X purinoceptor 7 (Homo sapiens) (UniProt Q99572).
T2 sequence (whole entry): T1 sequence (Q99572 whole entry)
The note with it: HEK293, at 3 µM.

Take `CN(CCO)CCc1cc(C(=O)NCC23CC4CC(CC(C4)C2)C3)c(Cl)cn1`: on P2X purinoceptor 7, the IC50 (in general, the concentration needed to halve the response being measured) was 15.8 nM.
As for `O=C(NCC12CC3CC(CC(C3)C1)C2)c1cc(OCCCNCCCO)ccc1Cl`, at P2X purinoceptor 7, the pIC50 (in general, the IC50 on a negative log10 scale, so that one unit is a factor of ten) is on record as above 5.
For `CC(C)(C)OC(=O)N1CCN(C(=O)[C@H](Cc2ccc(O)cc2)NC(=O)OCc2ccccc2)CC1`, the inhibition (as a rule, how much of the control response was suppressed) in experiment [1] was below 10%.
Turning to `O=C(O)CNCCNc1ccc(Cl)c(C(=O)NCC23CC4CC(CC(C4)C2)C3)c1`, the pIC50 at P2X purinoceptor 7 is listed as above 5.
The same measure, in the same setting: the result for `O=C(NCC12CC3CC(CC(C3)C1)C2)c1cc(N2CCNCC2)ncc1Cl` reads above 5.
In experiment [1], `O=C(N[C@@H](Cc1ccc(OS(=O)(=O)c2ccccc2)cc1)C(=O)N1CCN(C(=O)c2ccccc2)CC1)OCc1ccccc1` showed an inhibition of 78%.
As for `CC(C)NC(=O)c1cnc(N2CCC(N3C(=O)OCc4ccccc43)CC2)c(Cl)c1`, the pIC50 entry at P2X purinoceptor 7 was “>= 4.5”.
Consider `CCS(=O)(=O)N1CCc2c(ccc(C)c2NC(=O)Cc2ccc(C(F)(F)F)c(F)c2)C1`, for which, at P2X purinoceptor 7, the IC50 is 25.1 nM.
For `CCC(=O)Oc1ccc(C[C@H](NC(=O)OCc2ccccc2)C(=O)N2CCN(C(=O)OC(C)(C)C)CC2)cc1`, the inhibition in experiment [1] is below 10%.
As to `CCOC(=O)Oc1ccc(C[C@H](NC(=O)OCc2ccccc2)C(=O)N2CCN(C(=O)OC(C)(C)C)CC2)cc1`, the inhibition in experiment [1] is below 10%.
`CCC(=O)N1CCN(C(=O)[C@H](Cc2ccc(OS(=O)(=O)c3ccccc3)cc2)NC(=O)OCc2ccccc2)CC1` had an inhibition in experiment [1] below 10%.
As for `CCCCC(CC)CNC(=O)c1cc(-n2ncc(=O)[nH]c2=O)ccc1Cl` (configuration not stated), on P2X purinoceptor 7, the IC50 was 794 nM.
With `C[C@@H](C(N)=O)n1ccc2c(NC(=O)CC34CC5CC(CC(C5)C3)C4)c(Cl)ccc2c1=O`, the IC50 at P2X purinoceptor 7 is 0.0794 nM.
Consider `COc1ccc(Cl)c(C(=O)NCC23CC4CC(CC(C4)C2)C3)c1`, for which the Kb on P2X purinoceptor 7 is 1.58 nM.
With `CC(C)(C)OC(=O)N1CCN(C(=O)[C@H](Cc2ccc(OC(=O)OCc3ccccc3)cc2)NC(=O)OCc2ccccc2)CC1`, in experiment [1], the inhibition was below 10%.
As for `CC(C)C(CO)n1ccc2c(NC(=O)CC34CC5CC(CC(C5)C3)C4)cccc2c1=O` (configuration not stated), the IC50 at P2X purinoceptor 7 was 0.0501 nM.
`CCOC(=O)N[C@@H](Cc1ccc(OS(=O)(=O)c2cccc3cccnc23)cc1)C(=O)N1CCN(C(=O)OC(C)(C)C)CC1` returned an inhibition in experiment [1] below 10%.
In the case of `CC(=O)NC(CCc1ccncc1)COc1ccc(-c2cccc([N+](=O)[O-])c2)cc1` (configuration not stated), the IC50 on P2X purinoceptor 7 is above 10000 nM.
`CC(C)(C)OC(=O)N1CCN(C(=O)[C@@H](N)Cc2ccc(OS(=O)(=O)c3cccc4cccnc34)cc2)CC1` displayed an inhibition in experiment [1] below 10%.
Still for that read-out and setting: the result for `CC(C)(C)OC(=O)N1CCN(C(=O)[C@H](Cc2ccc(OS(=O)(=O)c3cccc4cccnc34)cc2)NS(=O)(=O)c2cccc3cnccc23)CC1` reads 37%.
Turning to `O=C(NC12CC3CC(CC(C3)C1)C2)c1ccccc1Cl`, on P2X purinoceptor 7, the IC50 was above 10000 nM.
Consider `NC1CCN(c2nccc(C(=O)NCC34CC5CC(CC(C5)C3)C4)c2Cl)CC1`, for which, at P2X purinoceptor 7, the pIC50 is listed as above 5.
On to `CC(C)(C)OC(=O)N1CCN(C(=O)[C@H](Cc2ccc(OS(C)(=O)=O)cc2)NC(=O)OCc2ccccc2)CC1`, for which, in experiment [1], the inhibition was below 10%.
Regarding `Cc1cccc(C)c1NC(=O)CN1CC2CCC(C1)N2c1ncnc2sccc12`, at P2X purinoceptor 7, the pIC50 entry is recorded as “>= 5”.
As for `Clc1cccc(-c2nnnn2Cc2c(Cl)cccc2Cl)c1Cl`, at P2X purinoceptor 7, the IC50 was 126 nM.
As for `O=C(N[C@@H](Cc1ccc(OS(=O)(=O)c2ccccc2)cc1)C(=O)N1CCN(C(=O)OCc2ccccc2)CC1)OCc1ccccc1`, the inhibition in experiment [1] came out at 48%.
With `O=C(CC1CCCCCC1)Nc1cccc2c(=O)n([C@H]3CCNC3)ccc12`, the IC50 on P2X purinoceptor 7 is 3.16 nM.
Consider `O=C(NCC12CC3CC(CC(C3)C1)C2)c1cc(OC2CCNCC2)ncc1Cl`, for which the pIC50 at P2X purinoceptor 7 is recorded as above 5.
In experiment [1], `CC(C)(C)OC(=O)N1CCN(C(=O)[C@H](Cc2ccc(OC(=O)c3ccccc3)cc2)NC(=O)OCc2ccccc2)CC1` showed an inhibition of 47%.
For the compound `O=C(NCC12CC3CC(CC(C3)C1)C2)c1ccc(Cl)cc1`, the IC50 at P2X purinoceptor 7 is above 10000 nM.
Take `O=C(NCC12CC3CC(CC(C3)C1)C2)c1ccnc(N2CCNCC2)c1Cl`: the pIC50 at P2X purinoceptor 7 was above 5.
As to `O=C(CC1CCCCC1)Nc1c(Cl)ccc2nc(NCCCO)ccc12`, on P2X purinoceptor 7, the IC50 is 25.1 nM.
As for `Cc1ccc(S(=O)(=O)Oc2ccc(C[C@H](NC(=O)OCc3ccccc3)C(=O)N3CCN(C(=O)OC(C)(C)C)CC3)cc2)cc1`, the inhibition in experiment [1] was 71%.
Same read-out and setting: under `CC(C)(C)OC(=O)N1CCN(C(=O)[C@H](Cc2ccc(OS(=O)(=O)c3cccc4cccnc34)cc2)NS(=O)(=O)c2cccc3cccnc23)CC1` stands 61%.
In turn, `COc1ccc(S(=O)(=O)Oc2ccc(C[C@H](NC(=O)OCc3ccccc3)C(=O)N3CCN(C(=O)OC(C)(C)C)CC3)cc2)cc1` displayed an inhibition in experiment [1] of 62%.
Same read-out and setting: under `Cc1ccc(S(=O)(=O)N[C@@H](Cc2ccc(OS(=O)(=O)c3cccc4cccnc34)cc2)C(=O)N2CCN(C(=O)OC(C)(C)C)CC2)cc1` stands 32%.
With `COC(=O)N(C)C(CCc1ccncc1)COc1ccc(-c2cccc([N+](=O)[O-])c2)cc1` (configuration not stated), on P2X purinoceptor 7, the IC50 is above 10000 nM.
In the case of `CS(=O)(=O)NC(=O)NCCCc1ccc2c(C(=O)NCC3CCCCC3)c(Cl)ccc2n1`, the IC50 at P2X purinoceptor 7 was 501 nM.
For `O=C(Cc1ccc(F)c(C(F)(F)F)c1)Nc1cccc2c(=O)n([C@@H]3CNC[C@H]3O)ccc12`, at P2X purinoceptor 7, the IC50 was 2.51 nM.
As to `O=C(NCC12CC3CC(CC(C3)C1)C2)c1ccnc(NCC2CCNCC2)c1Cl`, the pIC50 at P2X purinoceptor 7 is on record as above 5.
`CC(C)(C)OC(=O)N1CCN(C(=O)[C@H](Cc2ccc(OS(=O)(=O)c3cccc4cccnc34)cc2)NC(=O)OCc2ccccc2)CC1` registered an inhibition in experiment [1] of 53%.
In the case of `Cc1ccc2c(NC(=O)C[C@H](C)c3ccccc3)c(Cl)ccc2n1`, at P2X purinoceptor 7, the IC50 was 316 nM.
Still for that read-out and setting: the result for `O=C(Cc1cccc(C(F)(F)F)c1F)Nc1c(Cl)ccc2c(=O)n(C3CC3)ccc12` reads 0.316 nM; that for `Cc1ccc2nc(CCNCCCO)ccc2c1NC(=O)CC12CC3CC(CC(C3)C1)C2`, 15.8 nM; that for `COC(=O)NC(CCc1ccncc1)COc1ccc(-c2cccc([N+](=O)[O-])c2)cc1` (configuration not stated), above 10000 nM.
Same read-out and setting: the result for `O=C(NCC12CC3CC(CC(C3)C1)C2)c1cc(-n2ncc(=O)[nH]c2=O)ccc1Cl` reads 50.1 nM; that for `O=C(CC12CC3CC(CC(C3)C1)C2)Nc1c(Cl)ccc2nc(CN3CCN(CCO)CC3)ccc12`, 20 nM.
As for `O=C(NCC12CC3CC(CC(C3)C1)C2)c1cc(CCCNCCc2cnc[nH]2)ccc1Cl`, the pIC50 on P2X purinoceptor 7 was above 5.
In the case of `CC(CO)NC(=O)c1cnc(N2CCC(N3C(=O)OCc4ccccc43)CC2)nc1C(F)(F)F` (configuration not stated), the pIC50 entry at P2X purinoceptor 7 was “>= 4.5”.
Turning to `O=C(NCC1(O)CCCCC1)c1cc(-n2ncc(=O)[nH]c2=O)ccc1Cl`, the IC50 on P2X purinoceptor 7 was 398 nM.
As to `Cc1ccccc1NC(=O)CC12CC3CC(CC(C3)C1)C2`, the Kb at P2X purinoceptor 7 was 158 nM.
For the compound `O=C(CNc1ccc(F)c(F)c1)Nc1cc(OC2CCNCC2)ccc1Cl`, at P2X purinoceptor 7, the pIC50 is listed as above 4.5.
As for `CNC[C@@H](O)Cc1ccc(Cl)c(C(=O)NCC23CC4CC(CC(C4)C2)C3)c1`, the IC50 on P2X purinoceptor 7 is 10 nM.
On to `O=C(Cc1ccc(C(F)(F)F)c(F)c1)Nc1cccc2c1CCN(C(=O)[C@H]1CCCN1)C2`, for which the IC50 on P2X purinoceptor 7 is 79.4 nM.
Turning to `CN(C(=O)c1ccc(N2CCC(N3C(=O)OCc4ccccc43)CC2)c([N+](=O)[O-])c1)C1CCCCC1`, the pIC50 result at P2X purinoceptor 7 is listed as “>= 4.5”.
Consider `O=C(CC12CC3CC(CC(C3)C1)C2)Nc1cccc2nc(NCCCO)ccc12`, for which the IC50 at P2X purinoceptor 7 was 7.94 nM.
Regarding `C[C@@H]1CN(CC(=O)Nc2cccc3ncccc23)CCN1S(=O)(=O)c1ccc(S(C)(=O)=O)cc1`, on P2X purinoceptor 7, the pIC50 entry is reported as “>= 5”.
